Tests used:
weanling piglets = assay: Synergy of derivatives and colistin sulfate in the feed for weanling piglets; format: in vivo, Duroc×Landrace×Large crossbred lean weanling piglets; conditions: creep feed with 20 ppm colistin sulfate and 150 ppm derivative (hydrochloride), ten days
E. coli 5F-1 = assay: MIC, resistance reversal by various concentrations of compound 3, E. coli 5F-1
Procedure: (§1) The compound 3 in this embodiment was in the form of a hydrochloride, i.e., the experiments were carried out with a hydrochloride of compound 3.
(§2) In vitro minimum inhibitory concentrations of colistin sulfate against the strains where the cultures respectively comprised various concentrations of compound 3 were also measured.

Salmonella sp. 3087 = assay: MIC, resistance reversal by various concentrations of compound 3, Salmonella sp. 3087
Procedure: as §1, §2

E. coli 3H-4 = assay: MIC by doubling dilution, colistin sulfate-resistant E. coli 3H-4
Procedure: In vitro minimum inhibitory concentrations of colistin sulfate against the strains where the cultures respectively comprised 20.0 ppm of the substituted benzylideneguanidine derivatives were also measured.

[1] = colistin sulfate with 0 ppm compound 3, or compound 3 (hydrochloride) in the absence of colistin sulfate

## CC(C)Oc1ccc(C=NN=C(N)NN=Cc2ccc(OC(C)C)cc2)cc1 [Compound 3]
Weanling piglets
  Average daily weight gain: 258 g
  Diarrhea rate: 8%
  Feed conversion ratio: 1.441
E. coli 5F-1; 5 ppm compound 3
  In vitro MIC of colistin sulfate in the presence of compound 3: 32.00 ppm
E. coli 5F-1; 10 ppm compound 3
  In vitro MIC of colistin sulfate in the presence of compound 3: 8.00 ppm
E. coli 5F-1; 20 ppm compound 3
  In vitro MIC of colistin sulfate in the presence of compound 3: 1.00 ppm
E. coli 5F-1; 40 ppm compound 3
  In vitro MIC of colistin sulfate in the presence of compound 3: 1.00 ppm
E. coli 5F-1; 80 ppm compound 3
  In vitro MIC of colistin sulfate in the presence of compound 3: 0.50 ppm
E. coli 5F-1; [1]
  In vitro MIC of the substance alone: >800 ppm
Salmonella sp. 3087; 5 ppm compound 3
  In vitro MIC of colistin sulfate in the presence of compound 3: 64.00 ppm
Salmonella sp. 3087; 10 ppm compound 3
  In vitro MIC of colistin sulfate in the presence of compound 3: 16.00 ppm
Salmonella sp. 3087; 20 ppm compound 3
  In vitro MIC of colistin sulfate in the presence of compound 3: 4.00 ppm
Salmonella sp. 3087; 40 ppm compound 3
  In vitro MIC of colistin sulfate in the presence of compound 3: 2.00 ppm
Salmonella sp. 3087; 80 ppm compound 3
  In vitro MIC of colistin sulfate in the presence of compound 3: 1.00 ppm
Salmonella sp. 3087; [1]
  In vitro MIC of the substance alone: >800 ppm
E. coli 3H-4; E. coli 3H-4, colistin sulfate-resistant, substance alone, derivatives as hydrochlorides
  In vitro minimum inhibitory concentration (MIC) of the substance alone: >800 ppm
E. coli 3H-4; E. coli 3H-4, resistant, culture comprised 20.0 ppm of the derivative (hydrochloride)
  In vitro MIC of colistin sulfate in the presence of the substituted benzylideneguanidine derivative: 0.5 ppm

Source: patent US11116735B2, “Use of substituted benzylideneguanidine derivatives as synergists for polymyxin antibiotics” (GUANGZHOU INSIGHTER BIOTECHNOLOGY CO., LTD., priority 2015, dated 2021)
